Drawing on PMC5391474, “Investigation of the Role of Protein Kinase D in Human Rhinovirus Replication” (Journal of Virology, 2017), this text covers inhibition for one molecule.

Holding throughout (test): biochemical
Design in all cases: in vitro kinase selectivity panel, protein and lipid kinases, single concentration, ATP at Km
Common to all, as to conditions: ATP at Km

In one experiment the target is Met(h) (Homo sapiens, UniProt P08581). In short, it runs like this:
(§1)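 Single-point screen against a protein and lipid kinase panel: inhibitor at 1 μM. ATP concentration for every kinase equivalent to its Km.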

A further experiment has as its target T1, ARK5(h) (Homo sapiens, UniProt O60285).
T1 construct: gene NUAK1
The method, boiled down: as §1

The target of the next experiment is T2, PKCα(h) (Homo sapiens, UniProt P17252).
T2 construct: gene PRKCA
The method, boiled down: as §1

The next experiment addresses T3, PKCε(h) (Homo sapiens, UniProt Q02156).
T3 construct: gene PRKCE
In short, it runs like this: as §1

The next experiment concerns the target EGFR(T790M)(h) (Homo sapiens, UniProt P00533, T790M). In short, it runs like this: as §1
For the next experiment, the target named is KDR(h) (Homo sapiens, UniProt P35968). In short, it runs like this:
as §1

In another experiment the target is DYRK2(h) (Homo sapiens, UniProt Q92630). The method, boiled down:
as §1

Another experiment addresses T4, PKCδ(h) (Homo sapiens, UniProt Q05655).
T4 construct: gene PRKCD
In short, it runs like this: as §1

In another experiment the target is SPHK1 (Homo sapiens, UniProt Q9NYA1). In short, it runs like this:
as §1

Another experiment has as its target T5, TrkA(h) (Homo sapiens, UniProt P04629).
T5 construct: gene NTRK1
The method, boiled down:
as §1

In the next experiment the target is EphA2(h) (Homo sapiens, UniProt P29317). In short, it runs like this: as §1
For another experiment, the target named is T6, PDK1(h) (Homo sapiens, UniProt O15530).
T6 construct: gene PDPK1
The method, boiled down:
as §1

A further experiment addresses PIK3CB (Homo sapiens, UniProt P42338). In short, it runs like this:
as §1

A further experiment concerns the target EGFR(h) (Homo sapiens, UniProt P00533). In short, it runs like this:
as §1

A further experiment has as its target ALK(h) (Homo sapiens, UniProt Q9UM73). In short, it runs like this:
as §1

The target in another experiment is JAK2(h) (Homo sapiens, UniProt O60674). In short, it runs like this: as §1
The next experiment addresses T7, TAK1(h) (Homo sapiens, UniProt O43318).
T7 construct: gene MAP3K7
In short, it runs like this: as §1

The target of a further experiment is T8, PDGFRα(h) (Homo sapiens, UniProt P16234).
T8 construct: gene PDGFRA
T8 sequence (P16234 whole entry): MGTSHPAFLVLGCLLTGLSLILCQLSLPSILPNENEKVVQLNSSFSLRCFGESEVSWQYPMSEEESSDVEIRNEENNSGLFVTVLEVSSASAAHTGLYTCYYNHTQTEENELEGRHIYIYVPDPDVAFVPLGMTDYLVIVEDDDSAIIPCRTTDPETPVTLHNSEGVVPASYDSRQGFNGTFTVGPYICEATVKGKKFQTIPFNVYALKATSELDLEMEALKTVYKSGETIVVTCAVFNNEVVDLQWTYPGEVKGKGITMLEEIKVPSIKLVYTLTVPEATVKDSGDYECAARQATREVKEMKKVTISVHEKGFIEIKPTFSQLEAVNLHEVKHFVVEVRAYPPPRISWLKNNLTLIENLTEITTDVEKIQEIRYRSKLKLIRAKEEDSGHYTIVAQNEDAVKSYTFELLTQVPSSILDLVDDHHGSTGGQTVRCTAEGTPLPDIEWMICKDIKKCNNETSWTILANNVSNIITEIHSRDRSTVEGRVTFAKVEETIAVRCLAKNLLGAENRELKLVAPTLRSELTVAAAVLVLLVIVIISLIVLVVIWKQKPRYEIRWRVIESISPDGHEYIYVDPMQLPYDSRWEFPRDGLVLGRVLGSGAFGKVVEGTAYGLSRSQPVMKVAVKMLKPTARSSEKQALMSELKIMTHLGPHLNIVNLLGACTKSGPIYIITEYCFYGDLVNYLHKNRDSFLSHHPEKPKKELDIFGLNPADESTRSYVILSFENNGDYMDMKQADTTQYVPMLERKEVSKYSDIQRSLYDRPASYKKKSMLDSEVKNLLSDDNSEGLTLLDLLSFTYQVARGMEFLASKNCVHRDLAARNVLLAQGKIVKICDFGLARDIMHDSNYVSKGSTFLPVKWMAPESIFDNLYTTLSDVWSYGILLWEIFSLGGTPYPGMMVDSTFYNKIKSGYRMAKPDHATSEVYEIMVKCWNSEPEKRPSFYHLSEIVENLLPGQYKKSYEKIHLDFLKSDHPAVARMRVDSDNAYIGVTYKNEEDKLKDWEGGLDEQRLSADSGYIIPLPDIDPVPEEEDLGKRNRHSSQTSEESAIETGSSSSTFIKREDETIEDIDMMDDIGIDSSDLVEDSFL
In short, it runs like this:
as §1

T5 sequence (P04629 whole entry): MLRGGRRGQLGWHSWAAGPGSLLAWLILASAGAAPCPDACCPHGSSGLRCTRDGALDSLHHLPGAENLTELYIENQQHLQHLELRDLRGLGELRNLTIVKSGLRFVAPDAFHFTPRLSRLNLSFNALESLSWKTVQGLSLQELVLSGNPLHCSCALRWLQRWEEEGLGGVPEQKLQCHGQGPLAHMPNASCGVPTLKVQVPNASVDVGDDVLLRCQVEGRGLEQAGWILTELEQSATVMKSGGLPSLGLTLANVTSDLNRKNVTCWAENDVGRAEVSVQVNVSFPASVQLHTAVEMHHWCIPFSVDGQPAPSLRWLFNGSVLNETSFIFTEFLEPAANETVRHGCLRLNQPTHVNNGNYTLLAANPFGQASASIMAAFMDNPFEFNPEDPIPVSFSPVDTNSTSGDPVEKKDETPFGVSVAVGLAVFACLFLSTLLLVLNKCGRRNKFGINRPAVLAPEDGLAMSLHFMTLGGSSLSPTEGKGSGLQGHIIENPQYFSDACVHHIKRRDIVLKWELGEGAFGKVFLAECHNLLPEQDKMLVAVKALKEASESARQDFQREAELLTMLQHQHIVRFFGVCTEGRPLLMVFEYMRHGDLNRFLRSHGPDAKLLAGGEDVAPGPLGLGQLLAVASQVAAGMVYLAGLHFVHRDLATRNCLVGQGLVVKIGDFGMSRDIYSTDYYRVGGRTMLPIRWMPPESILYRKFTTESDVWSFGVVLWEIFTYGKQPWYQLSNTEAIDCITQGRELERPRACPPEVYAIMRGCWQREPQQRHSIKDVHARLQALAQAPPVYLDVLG
EGFR(h), sequence (P00533 whole entry): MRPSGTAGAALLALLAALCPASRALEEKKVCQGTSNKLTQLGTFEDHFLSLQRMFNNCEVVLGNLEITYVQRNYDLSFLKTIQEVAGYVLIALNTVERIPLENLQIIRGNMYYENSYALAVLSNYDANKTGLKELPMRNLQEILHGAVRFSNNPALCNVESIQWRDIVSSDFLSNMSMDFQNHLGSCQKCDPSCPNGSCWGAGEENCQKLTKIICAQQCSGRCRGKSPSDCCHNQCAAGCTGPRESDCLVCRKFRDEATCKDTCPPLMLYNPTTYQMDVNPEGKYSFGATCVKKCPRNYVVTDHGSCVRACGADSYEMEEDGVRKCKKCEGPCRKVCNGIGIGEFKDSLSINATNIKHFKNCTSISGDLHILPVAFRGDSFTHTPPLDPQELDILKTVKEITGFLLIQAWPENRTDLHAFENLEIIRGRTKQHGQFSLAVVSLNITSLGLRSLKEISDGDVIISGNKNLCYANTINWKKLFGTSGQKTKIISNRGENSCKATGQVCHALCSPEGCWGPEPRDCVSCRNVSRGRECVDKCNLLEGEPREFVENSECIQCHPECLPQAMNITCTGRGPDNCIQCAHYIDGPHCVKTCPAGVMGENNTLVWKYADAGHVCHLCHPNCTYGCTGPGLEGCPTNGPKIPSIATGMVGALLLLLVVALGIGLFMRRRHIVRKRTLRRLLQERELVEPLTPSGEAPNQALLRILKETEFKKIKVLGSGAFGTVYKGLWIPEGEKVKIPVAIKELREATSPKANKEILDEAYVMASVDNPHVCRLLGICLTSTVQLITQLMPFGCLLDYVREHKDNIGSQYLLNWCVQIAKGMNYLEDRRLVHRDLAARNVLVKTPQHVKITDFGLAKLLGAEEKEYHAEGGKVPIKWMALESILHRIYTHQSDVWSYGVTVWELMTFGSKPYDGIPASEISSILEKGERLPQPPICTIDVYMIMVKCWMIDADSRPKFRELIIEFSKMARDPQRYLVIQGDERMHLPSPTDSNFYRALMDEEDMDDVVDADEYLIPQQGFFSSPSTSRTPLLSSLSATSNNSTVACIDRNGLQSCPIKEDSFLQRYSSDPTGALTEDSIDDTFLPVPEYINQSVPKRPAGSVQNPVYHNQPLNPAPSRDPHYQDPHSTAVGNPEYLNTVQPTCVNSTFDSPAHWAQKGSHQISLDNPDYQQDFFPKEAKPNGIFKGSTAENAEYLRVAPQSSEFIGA
EGFR(T790M)(h), sequence (P00533 whole entry T790M): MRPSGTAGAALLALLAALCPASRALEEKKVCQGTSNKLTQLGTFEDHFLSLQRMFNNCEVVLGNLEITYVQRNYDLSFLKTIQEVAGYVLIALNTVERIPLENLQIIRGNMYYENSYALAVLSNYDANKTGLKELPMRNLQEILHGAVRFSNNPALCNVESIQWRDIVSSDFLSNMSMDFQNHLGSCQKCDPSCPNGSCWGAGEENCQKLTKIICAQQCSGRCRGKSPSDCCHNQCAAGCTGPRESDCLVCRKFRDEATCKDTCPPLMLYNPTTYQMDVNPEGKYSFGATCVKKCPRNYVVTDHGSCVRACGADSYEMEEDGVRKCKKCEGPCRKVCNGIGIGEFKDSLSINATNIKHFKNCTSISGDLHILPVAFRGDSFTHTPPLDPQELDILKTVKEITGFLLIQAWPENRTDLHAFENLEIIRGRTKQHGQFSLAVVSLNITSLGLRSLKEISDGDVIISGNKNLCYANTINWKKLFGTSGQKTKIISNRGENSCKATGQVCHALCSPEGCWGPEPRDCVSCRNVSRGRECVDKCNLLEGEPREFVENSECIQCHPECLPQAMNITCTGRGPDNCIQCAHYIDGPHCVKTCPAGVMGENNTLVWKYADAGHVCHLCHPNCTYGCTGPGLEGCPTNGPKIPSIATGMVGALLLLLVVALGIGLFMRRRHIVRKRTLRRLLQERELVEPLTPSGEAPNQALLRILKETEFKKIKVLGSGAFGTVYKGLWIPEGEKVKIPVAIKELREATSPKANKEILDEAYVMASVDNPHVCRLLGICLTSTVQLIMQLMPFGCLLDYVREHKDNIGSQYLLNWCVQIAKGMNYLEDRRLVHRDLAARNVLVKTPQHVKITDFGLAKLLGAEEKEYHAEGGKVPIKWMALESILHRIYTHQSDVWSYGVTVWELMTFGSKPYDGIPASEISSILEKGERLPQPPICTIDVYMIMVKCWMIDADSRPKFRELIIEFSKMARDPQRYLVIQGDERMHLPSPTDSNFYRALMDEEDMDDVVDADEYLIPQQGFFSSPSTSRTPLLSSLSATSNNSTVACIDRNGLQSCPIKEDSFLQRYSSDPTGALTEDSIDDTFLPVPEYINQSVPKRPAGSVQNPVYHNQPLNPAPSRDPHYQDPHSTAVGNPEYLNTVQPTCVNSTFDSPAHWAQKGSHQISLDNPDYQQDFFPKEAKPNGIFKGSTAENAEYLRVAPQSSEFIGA

Turning to `CC[C@@H](N)CNc1ccnc(-c2cc(-c3cnn(C)c3)ccc2O)n1` [CRT0066101], the inhibition (commonly the change of the read-out against control, counted positive when it falls) at 1 µM is 12% against Met(h); 49% against ARK5(h); 4% against PKCα(h); 12% against PKCε(h); -2% against EGFR(T790M)(h); 13% on KDR(h). In addition, the inhibition at 1 µM against DYRK2(h) was 94%; against PKCδ(h) it was 28%; against SPHK1, 19%; against TrkA(h), 23%; at EphA2(h), 2%; against PDK1(h) it was -17%. Further, the inhibition at 1 µM at PIK3CB was -9%; on EGFR(h), -6%; against ALK(h), 3%; at JAK2(h) it was 10%; on TAK1(h), -6%; against PDGFRα(h), 14%.
